Like-named read-outs stand apart in the source and are kept apart here.

The target of one data set is T1, BRDT(2) (Homo sapiens, UniProt Q58F21).
T1 construct: the second as compared with the first bromodomain of these BRDs
Briefly: Protein stability shift assay (thermal shift), BRDT(2). It counts as binding. Conditions: 10 μM ligand.

For a further data set, the target named is T2, PCAF (Homo sapiens, UniProt Q92831).
T2 construct: Thermal shift (Δtm^obs) of human bromodomains in the presence of 10 μM compound
T2 sequence (Q92831 723-827 limits assumed): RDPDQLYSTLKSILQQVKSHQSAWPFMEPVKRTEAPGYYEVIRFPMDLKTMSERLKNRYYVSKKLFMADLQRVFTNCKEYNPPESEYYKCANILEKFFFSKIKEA
Briefly: Protein stability shift assay (thermal shift), PCAF. In kind it is binding. The conditions noted are these: 10 μM ligand.

For the next data set, the target named is T3, PB1(5) (Homo sapiens, UniProt Q86U86).
T3 construct: Thermal shift (Δtm^obs) of human bromodomains in the presence of 10 μM compound
T3 sequence (Q86U86 653-763 limits assumed): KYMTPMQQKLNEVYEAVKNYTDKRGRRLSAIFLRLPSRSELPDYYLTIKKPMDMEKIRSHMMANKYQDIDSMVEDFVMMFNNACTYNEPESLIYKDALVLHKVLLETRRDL
Briefly: Protein stability shift assay (thermal shift), PB1(5). Conditions: 10 μM ligand. It counts as binding.

In data set [1] the test system is fibrosarcoma cells (HT1080). Briefly: Cytotoxicity: mitochondrial membrane potential (TMRM).
For data set [2] the following is noted: some of the participants; cited from earlier work.
Data set [3] concerns the target T4, BRD3(2) (Homo sapiens, UniProt Q15059). Briefly: Protein stability shift assay (thermal shift), BRD3(2). In kind it is binding. Also noted: the second as compared with the first bromodomain of these BRDs. The conditions noted are these: 10 μM ligand.
For a further data set, the target named is T5, BRD2(2) (Homo sapiens, UniProt P25440).
T5 construct: the second as compared with the first bromodomain of these BRDs
T5 sequence (P25440 344-453 limits assumed): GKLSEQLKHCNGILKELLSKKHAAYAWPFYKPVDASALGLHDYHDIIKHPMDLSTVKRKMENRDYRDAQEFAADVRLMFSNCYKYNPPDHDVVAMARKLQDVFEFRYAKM
Briefly: Protein stability shift assay (thermal shift), BRD2(2). It counts as binding. The conditions noted are these: 10 μM ligand.

For the next data set, the target named is T6, BRDT(1) (Homo sapiens, UniProt Q58F21).
T6 construct: the second as compared with the first bromodomain of these BRDs
Briefly: Protein stability shift assay (thermal shift), BRDT(1). In kind it is binding. The conditions noted are these: 10 μM ligand.

A further data set has as its target T7, BRD4(2) (Homo sapiens, UniProt O60885).
T7 construct: the second as compared with the first bromodomain of these BRDs
Briefly: Protein stability shift assay (thermal shift), BRD4(2). It counts as binding. Conditions: 10 μM ligand.

The target of data set [4] is T8, BRD4(1) (Homo sapiens, UniProt O60885). Briefly: Protein stability shift assay (thermal shift), BRD4(1). It counts as binding. Also on record: the second as compared with the first bromodomain of these BRDs. The conditions noted are these: 10 μM ligand.
For the next data set, the target named is T9, CREBBP (Homo sapiens, UniProt Q92793).
T9 construct: Thermal shift (Δtm^obs) of human bromodomains in the presence of 10 μM compound
T9 sequence (Q92793 1085-1192 limits assumed): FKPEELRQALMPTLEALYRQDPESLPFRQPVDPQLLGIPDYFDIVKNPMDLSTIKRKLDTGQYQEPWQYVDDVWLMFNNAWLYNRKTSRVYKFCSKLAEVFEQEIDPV
Briefly: Protein stability shift assay (thermal shift), CREBBP. In kind it is binding. Conditions: 10 μM ligand.

Data set [5] relates to apoA-I production by primary human hepatocytes. Briefly: apoA-I production by primary human hepatocytes (ELISA). It counts as cell-based. Conditions: cultured human hepatocytes. (ELISA stands for enzyme-linked immunosorbent assay.)
The next data set deals with T10, BRD2(1) (Homo sapiens, UniProt P25440).
T10 construct: the second as compared with the first bromodomain of these BRDs
T10 sequence (P25440 74-180 limits assumed): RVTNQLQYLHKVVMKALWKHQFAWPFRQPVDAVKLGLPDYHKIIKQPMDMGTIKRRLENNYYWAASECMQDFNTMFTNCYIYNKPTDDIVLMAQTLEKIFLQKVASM
Briefly: Protein stability shift assay (thermal shift), BRD2(1). In kind it is binding. The conditions noted are these: 10 μM ligand.

A further data set concerns the target T11, BAZ2B (Homo sapiens, UniProt Q9UIF8).
T11 construct: Thermal shift (Δtm^obs) of human bromodomains in the presence of 10 μM compound
T11 sequence (Q9UIF8 2060-2164 limits assumed): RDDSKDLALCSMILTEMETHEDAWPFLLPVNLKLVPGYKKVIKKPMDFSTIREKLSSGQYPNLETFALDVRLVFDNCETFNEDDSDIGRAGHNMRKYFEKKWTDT
Briefly: Protein stability shift assay (thermal shift), BAZ2B. It counts as binding. The conditions noted are these: 10 μM ligand.

The test system of data set [6] is apoA-I production by Hep-G2 cells. Also noted: method as in PMID 20513599. Conditions: HepG2 cells, 40 μM; cited from earlier work.
The target of the next data set is T12, BRD3(1) (Homo sapiens, UniProt Q15059).
T12 construct: the second as compared with the first bromodomain of these BRDs
T12 sequence (Q15059 34-140 limits assumed): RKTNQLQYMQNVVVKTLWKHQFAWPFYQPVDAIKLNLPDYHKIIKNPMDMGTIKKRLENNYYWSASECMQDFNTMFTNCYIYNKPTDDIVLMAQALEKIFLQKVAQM
Briefly: Protein stability shift assay (thermal shift), BRD3(1). It counts as binding. Conditions: 10 μM ligand.

Data set [7] deals with T4, BRD3(2). Briefly: Isothermal titration calorimetry, BRD3(2). Also on record: 2 μM for the first bromodomain in BRD4 and 0.5 μM for the second bromodomain in BRD3. In kind it is binding. The conditions noted are these: ITC.
The nature of data set [8]: Metabolic stability in human hepatocytes. The conditions noted are these: cryopreserved human hepatocytes, donor 2, 10 μM, read-out: stability in human hepatocytes (% remaining after 120 min). In kind it is in vitro ADME.
The next data set concerns recombinant BRD3 domains. Briefly: Bromodomain inhibition assay (Alphascreen), acetylated histone H4 peptide displacement, BRD3. Conditions: domains 1 and 2, result in words (Figure 4). In kind it is biochemical. For orientation: Alpha assays give light when donor and acceptor beads are brought close together.
For another data set, the system named is central BZD receptor. Briefly: Binding to central BZD receptor, 3H-flunitrazepam, rat cerebral cortex membranes. Conditions: rat brain membranes, result in words (Figure 3A).
The next data set relates to recombinant BRD4 domains. Briefly: Bromodomain inhibition assay (Alphascreen), acetylated histone H4 peptide displacement, BRD4. It counts as biochemical. Conditions: domains 1 and 2, result in words (Figure 4).
A short description of data set [9]: Cytotoxicity: ATP level (Cell Titer Glo). It counts as cell-based, human. Conditions: 100 μM, 72 hours, result in words. On the technique in general: Cellular ATP, detected with luciferase, serves as a proxy for viable cell number.
Data set [10] addresses T8, BRD4(1). Briefly: Isothermal titration calorimetry, BRD4(1). Also on record: 2 μM for the first bromodomain in BRD4 and 0.5 μM for the second bromodomain in BRD3. In kind it is binding. The conditions noted are these: ITC.
Data set [11] addresses T13, human recombinant PAF receptor (Homo sapiens, UniProt P25105).
T13 construct: expressed in transfected cells; host or cells: CHO cells
Briefly: Binding to PAF receptor, 3H-C16-PAF, CHO cells. Conditions: cells expressing the human PAF receptor, result in words (Figure 3B).

T4 sequence (Q15059 306-415 limits assumed): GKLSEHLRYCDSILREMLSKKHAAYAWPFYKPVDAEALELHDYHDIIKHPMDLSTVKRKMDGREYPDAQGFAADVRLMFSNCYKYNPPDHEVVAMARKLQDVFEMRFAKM
T13 sequence (P25105 whole entry): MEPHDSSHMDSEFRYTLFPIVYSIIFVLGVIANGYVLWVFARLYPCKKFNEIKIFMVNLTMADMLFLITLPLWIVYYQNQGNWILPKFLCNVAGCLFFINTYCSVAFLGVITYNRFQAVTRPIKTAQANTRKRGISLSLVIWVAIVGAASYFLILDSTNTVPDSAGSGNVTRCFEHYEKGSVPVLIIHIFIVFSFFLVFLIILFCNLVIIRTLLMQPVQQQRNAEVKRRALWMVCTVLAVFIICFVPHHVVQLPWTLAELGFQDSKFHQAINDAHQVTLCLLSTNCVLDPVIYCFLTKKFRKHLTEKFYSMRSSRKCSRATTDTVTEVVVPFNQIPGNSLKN

For the compound `COc1cc(OC)c2c(=O)[nH]c(-c3cc(C)c(OCCO)c(C)c3)nc2c1` [RVX-208, reference compound], at BRDT(2), the “Thermal shift (ΔTm obs) BRDT(2)” value worked out at 4.0. Besides, on PCAF, the “Thermal shift (ΔTm obs) PCAF” value was −0.4. The “Thermal shift (ΔTm obs) PB1(5)” value at PB1(5) is 0.0. Further, the IC50 (commonly the concentration at which inhibition is half-maximal) in data set [1] (Homo sapiens, HT-1080, 72 h, read-out: mitochondrial membrane potential in fibrosarcoma cells, IC50, 72 hours) came to 50 µM; in data set [1] (read-out: mitochondrial membrane potential in fibrosarcoma cells, IC50, 72 hours) it was 49 µM. For the same compound, the “liver safety in human study” value in data set [2] is recorded as “signs of liver damage”. Further, the “Thermal shift (ΔTm obs) BRD3(2)” value at BRD3(2) [3] is recorded as 4.0. Moreover, the “Thermal shift (ΔTm obs) BRD2(2)” value at BRD2(2) turned out to be 4.0. The “Thermal shift (ΔTm obs) BRDT(1)” value at BRDT(1) was 0.6. Moreover, the “Thermal shift (ΔTm obs) BRD4(2)” value at BRD4(2) was found to be 3.4. Besides, the “Thermal shift (ΔTm obs) BRD4(1)” value on BRD4(1) [4] came out at 1.3. Besides, at CREBBP, the “Thermal shift (ΔTm obs) CREBBP” value is on record as −0.2. Moreover, the “increase of apoA-I production” value in data set [5] (highest concentration tested (100 μM)) is on record as “up to 80%”. Besides, on BRD2(1), the “Thermal shift (ΔTm obs) BRD2(1)” value worked out at 0.9. The “Thermal shift (ΔTm obs) BAZ2B” value at BAZ2B was −0.2. In data set [6], the “stimulation of apoA-I protein production” value is 2 fold. For the same compound, on BRD3(1), the “Thermal shift (ΔTm obs) BRD3(1)” value worked out at 0.8.
Regarding `Cc1nnc2n1-c1sccc1C(c1ccccc1)=NC2(C)C` [MDCO-3770], on BRDT(2), the “Thermal shift (ΔTm obs) BRDT(2)” value was 0.3. Further, the “Thermal shift (ΔTm obs) PCAF” value at PCAF is on record as 1.5. The TΔS came out at 0.04 kcal/mol at BRD3(2) [7] (BRD3(2), 15°C) and 0.01 kcal/mol at BRD4(1) [10] (BRD4(1), 15°C). Besides, the ΔH obs on BRD3(2) [7] (BRD3(2), 15°C) was -4.62 ± 0.042 kcal/mol; at BRD4(1) [10] (BRD4(1), 15°C), -6.71 ± 0.103 kcal/mol. In addition, the N on BRD3(2) [7] (BRD3(2), 15°C, single binding site model) is 1.02 ± 0.006; at BRD4(1) [10] (BRD4(1), 15°C, single binding site model), 0.99 ± 0.011. Besides, the Kd – broadly, the free concentration of one partner at which half of the binding sites on the other are occupied at equilibrium, for simple one-to-one binding – at BRD3(2) [7] (KD, BRD3(2), 15°C, reverse titration) was found to be 513 ± 40.5 nM; at BRD3(2) [7] (binding affinity, second bromodomain in BRD3, rounded in text) it was 500 nM; at BRD4(1) [10] (KD, BRD4(1), 15°C, reverse titration) it was 2060 ± 141 nM; on BRD4(1) [10] (binding affinity, first bromodomain in BRD4, rounded in text) it was 2000 nM. Further, the “Thermal shift (ΔTm obs) PB1(5)” value at PB1(5) is listed as −0.5. Also, the fraction remaining (as a rule, what is left of the initial amount, in per cent) at 2 h, 10 μM in data set [8] is 97%. Also, in data set [1] (100 μM, 72 hours, result in words), the “mitochondrial membrane potential in fibrosarcoma cells” value is recorded as “no effect at 100 μM (n = 5)”. In addition, the “inhibition of binding of acetylated histone H4 peptide to BRD3 domains” value in the data set on recombinant BRD3 domains is “clearly more potent than the other 2 thieno-TZDs”. In addition, the “Thermal shift (ΔTm obs) BRD3(2)” value on BRD3(2) [3] worked out at 5.3. In addition, the “competition with labeled flunitrazepam” value in the data set with central BZD receptor is recorded as “did not compete”. Moreover, the “inhibition of binding of acetylated histone H4 peptide to BRD4 domains” value in the data set on recombinant BRD4 domains is recorded as “clearly more potent than the other 2 thieno-TZDs”. Moreover, the “Thermal shift (ΔTm obs) BRD2(2)” value on BRD2(2) is reported as 0.0. In addition, at BRDT(1), the “Thermal shift (ΔTm obs) BRDT(1)” value is on record as −0.9. In addition, the “Thermal shift (ΔTm obs) BRD4(2)” value at BRD4(2) stood at 2.5. Moreover, the “Thermal shift (ΔTm obs) BRD4(1)” value on BRD4(1) [4] amounted to 3.3. The “Thermal shift (ΔTm obs) CREBBP” value at CREBBP is −0.6. For the same compound, the “stimulation of apoA-I production” value in data set [5] (72 hours, maximal stimulation) is recorded as “up to 3 fold”. Also, the “Thermal shift (ΔTm obs) BRD2(1)” value at BRD2(1) is reported as −1.1. Besides, in data set [9], the “ATP level in human hepatocytes” value is “no effect at 100 μM (n = 3)”. On BAZ2B, the “Thermal shift (ΔTm obs) BAZ2B” value is given as −0.4. On BRD4(1) [10] (BRD4(1), 15°C), the ΔG is -6.71 kcal/mol. Moreover, the “competition with labeled PAF” value in [11] is given as “only weakly displaced”. Also, the “Thermal shift (ΔTm obs) BRD3(1)” value on BRD3(1) was −0.2.

Values taken from paper PMC4147775, “Stimulation of Hepatic Apolipoprotein A-I Production by Novel Thieno-Triazolodiazepines: Roles of the Classical Benzodiazepine Receptor, PAF Receptor, and Bromodomain Binding” (Lipid insights, 2013).
